Assay results published in patent EP0620225B1, “Cephalosporin derivatives” (Basilea Pharmaceutica AG, priority 1993, dated 1994).
Values after ≈ are worked out from the molar mass of the structure shown. Counter-ions that a name gives are not always drawn.

Tests used:
E. coli ATCC 25922 = experiment: MIC, agar dilution method in Mueller Hinton agar; format: cell-based; details: Escherichia coli, ATCC25922, read-out: Minimum Inhibiting Concentration Values
Procedure: (§1) In vitro activity was determined by minimum inhibitory concentration in a microorganism spectum by the agar dilution method in Mueller Hinton agar.

E. coli TEM-1 = experiment: MIC, agar dilution method in Mueller Hinton agar; format: cell-based; details: Escherichia coli, TEM1, read-out: Minimum Inhibiting Concentration Values
Procedure: as §1

Prot. vulgaris ATCC 6380 = experiment: MIC, agar dilution method in Mueller Hinton agar; format: cell-based; details: Proteus vulgaris, ATCC6380, read-out: Minimum Inhibiting Concentration Values
Procedure: as §1

Ps. aeruginosa 5712 = experiment: MIC, agar dilution method in Mueller Hinton agar; format: cell-based; details: Pseudomonas aeruginosa, read-out: Minimum Inhibiting Concentration Values
Procedure: as §1

[1] = test system: Ps. aeruginosa ATCC 27853; experiment: MIC, agar dilution method in Mueller Hinton agar; format: cell-based; details: Pseudomonas aeruginosa, ATCC27853, read-out: Minimum Inhibiting Concentration Values
Procedure: as §1

Staph. aureus ATCC 29213 = experiment: MIC, agar dilution method in Mueller Hinton agar; format: cell-based; details: Staphylococcus aureus, ATCC29213, read-out: Minimum Inhibiting Concentration Values
Procedure: as §1

Staph. aureus Smith = experiment: MIC, agar dilution method in Mueller Hinton agar; format: cell-based; details: Staphylococcus aureus, read-out: Minimum Inhibiting Concentration Values
Procedure: as §1

Str. pneumoniae 6301 = experiment: MIC, agar dilution method in Mueller Hinton agar; format: cell-based; details: Streptococcus pneumoniae; Str. pneumoniae 6301; read-out: Minimum Inhibiting Concentration Values
Procedure: as §1

Str. pyogenes 4 = experiment: MIC, agar dilution method in Mueller Hinton agar; format: cell-based; details: Streptococcus pyogenes, read-out: Minimum Inhibiting Concentration Values
Procedure: as §1

Escherichia coli 25922 = experiment: Efficacy against systemic infections (septicemia) in mice; format: in vivo; details: 96 h, survival day 4
How it was run: (§2)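 Swiss albino mice (16–20 g) infected i.p. with 4–10× the 48-h LD50 of each strain; compound given p.o. or s.c. at 1 and 3 h post-challenge, plus 5 h for P. aeruginosa BA. Five mice per group; ED50 (mg/kg) by probit analysis of day-4 survival.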

[2] = test system: Pseudomonas aeruginosa BA; experiment: as above; format: in vivo; details: 96 h, sc (subcutaneous) 1, 3 and 5 h after challenge, survival day 4
How it was run: as §2

[3] = test system: Streptococcus pyogenes 15; experiment: as above; format: in vivo; details: 96 h, Streptococcus pyogenes 15, po (orally) 1 and 3 h after challenge, survival day 4
How it was run: as §2

Acinetobacter sp.51-156 = experiment: Antibacterial spectrum (MIC), agar dilution; format: cell-based; details: SP.51156, read-out: MIC
Procedure: as §1

B.fragilis ATCC25285 = experiment: Antibacterial spectrum (MIC), agar dilution; format: cell-based; details: Bacteroides fragilis, read-out: MIC
Procedure: as §1

C.difficile ZH1 = experiment: Antibacterial spectrum (MIC), agar dilution; format: cell-based; details: Clostridioides difficile, read-out: MIC
Procedure: as §1

C.freundii 43 = experiment: Antibacterial spectrum (MIC), agar dilution; format: cell-based; details: Citrobacter freundii, read-out: MIC
Procedure: as §1

C.freundii 902 = experiment: Antibacterial spectrum (MIC), agar dilution; format: cell-based; details: Citrobacter freundii, read-out: MIC
Procedure: as §1

E.cloacae 908R = experiment: Antibacterial spectrum (MIC), agar dilution; format: cell-based; details: Enterobacter cloacae, read-out: MIC
Procedure: as §1

E.cloacae 908SSi = experiment: Antibacterial spectrum (MIC), agar dilution; format: cell-based; details: Enterobacter cloacae, read-out: MIC
Procedure: as §1

E.coli 25922 = experiment: Antibacterial spectrum (MIC), agar dilution; format: cell-based; details: Escherichia coli, read-out: MIC
Procedure: as §1

E.faecalis 6 = experiment: Antibacterial spectrum (MIC), agar dilution; format: cell-based; details: Enterococcus faecalis, read-out: MIC
Procedure: as §1

H.influenzae 1 = experiment: Antibacterial spectrum (MIC), agar dilution; format: cell-based; details: Haemophilus influenzae, read-out: MIC
Procedure: as §1

K.pneumoniae 418 = experiment: Antibacterial spectrum (MIC), agar dilution; format: cell-based; details: Klebsiella pneumoniae, read-out: MIC
Procedure: as §1

L.monocytogenes BK23 = experiment: Antibacterial spectrum (MIC), agar dilution; format: cell-based; details: Listeria monocytogenes, read-out: MIC
Procedure: as §1

M.catarrhalis RA21 = experiment: Antibacterial spectrum (MIC), agar dilution; format: cell-based; details: Moraxella catarrhalis, read-out: MIC
Procedure: as §1

M.morganii 6H-137 = experiment: Antibacterial spectrum (MIC), agar dilution; format: cell-based; details: Morganella morganii, 6H137, read-out: MIC
Procedure: as §1

N.meningitidis 69480 = experiment: Antibacterial spectrum (MIC), agar dilution; format: cell-based; details: Neisseria meningitidis, read-out: MIC
Procedure: as §1

P.aeruginosa 27853 = experiment: Antibacterial spectrum (MIC), agar dilution; format: cell-based; details: Pseudomonas aeruginosa, read-out: MIC
Procedure: as §1

P.asaccharolyticus 29743 = experiment: Antibacterial spectrum (MIC), agar dilution; format: cell-based; details: Peptoniphilus asaccharolyticus, read-out: MIC
Procedure: as §1

P.mirabilis 2117 = experiment: Antibacterial spectrum (MIC), agar dilution; format: cell-based; details: Proteus mirabilis, read-out: MIC
Procedure: as §1

P.vulgaris 1028 = experiment: Antibacterial spectrum (MIC), agar dilution; format: cell-based; details: Proteus vulgaris, read-out: MIC
Procedure: as §1

S.agalactiae QK44 = experiment: Antibacterial spectrum (MIC), agar dilution; format: cell-based; details: Streptococcus agalactiae, read-out: MIC
Procedure: as §1

S.aureus 6538 = experiment: Antibacterial spectrum (MIC), agar dilution; format: cell-based; details: Staphylococcus aureus, read-out: MIC
Procedure: as §1

S.aureus 734 MRSA = experiment: Antibacterial spectrum (MIC), agar dilution; format: cell-based; details: Staphylococcus aureus, read-out: MIC
Procedure: as §1

S.marcescens 69438 = experiment: Antibacterial spectrum (MIC), agar dilution; format: cell-based; details: Serratia marcescens, read-out: MIC
Procedure: as §1

S.pneumoniae Q19 = experiment: Antibacterial spectrum (MIC), agar dilution; format: cell-based; details: Streptococcus pneumoniae, read-out: MIC
Procedure: as §1

S.pyogenes B15 = experiment: Antibacterial spectrum (MIC), agar dilution; format: cell-based; details: Streptococcus pyogenes, read-out: MIC
Procedure: as §1

S.viridans group 016 = experiment: Antibacterial spectrum (MIC), agar dilution; format: cell-based; details: Streptococcus viridans, read-out: MIC
Procedure: as §1

X.maltophilia 1AC739 = experiment: Antibacterial spectrum (MIC), agar dilution; format: cell-based; details: Stenotrophomonas maltophilia, read-out: MIC
Procedure: as §1

S.aureus MSSA = experiment: In vitro activity against selected species (MIC50, MIC90, range); format: cell-based; details: Staphylococcus aureus, medium MHB (Mueller Hinton Broth)
S.pneumoniae PEN-R = experiment: as above; format: cell-based; details: Streptococcus pneumoniae; for MIC: MIC range
S.viridans group = experiment: as above; format: cell-based; details: Streptococcus viridans
E.faecalis [4] = experiment: as above; format: cell-based; details: Enterococcus faecalis, medium MHA
Procedure: as §1

S.aureus MRSA = experiment: as above; format: cell-based; details: Staphylococcus aureus, medium MHA (Mueller Hinton Agar) +NaCl
Procedure: as §1

E.faecium = experiment: In vitro activity against selected species (MIC50, range); format: cell-based; details: Enterococcus faecium, medium MHA
Procedure: as §1

M.catarrhalis = experiment: In vitro activity against selected species (MIC50, MIC90, range); format: cell-based; details: Moraxella catarrhalis, medium IsoB
S.aureus Smith = experiment: Efficacy against systemic infections (septicemia) in mice; format: in vivo; details: Staphylococcus aureus, 96 h, sc 1 and 3 h after challenge, survival day 4
How it was run: as §2

E.faecalis [5] = experiment: In vitro activity against selected species (MIC50, MIC90, range); format: cell-based; details: Enterococcus faecalis, medium IsoB
[6] = Escherichia coli 25922, po (orally) 1 and 3 h after challenge
[7] = medium IsoB (Isosensitest Broth)

Nc1nc(/C(=N/OCC(=O)O)C(=O)N[C@@H]2C(=O)N3C(C(=O)O)=C(/C=C4\CCN(C5CC5)C4=O)CS[C@H]23)cs1 [C, [6R-[3(E),6α,7β(Z)]]-7-[[(2-Amino-4-thiazolyl)[(carboxy-methoxy)imino]-acetyl]amino]-3-[[1-cyclopropyl-2-oxo-3-pyrrolidinylidene]-methyl]-8-oxo-5-thia-1-azabicyclo[4.2.0]oct-2-ene-2-carboxylic acid disodium salt]
MIC (E. coli ATCC 25922): 0.0313 µg/mL
MIC (E. coli TEM-1): 0.0313 µg/mL
MIC (Prot. vulgaris ATCC 6380): ≤ 0.0156 µg/mL
MIC (Ps. aeruginosa 5712): 4 µg/mL
MIC [1]: 4 µg/mL
MIC (Staph. aureus ATCC 29213): 16 µg/mL
MIC (Staph. aureus Smith): 8 µg/mL
MIC (Str. pneumoniae 6301): 0.0625 µg/mL
MIC (Str. pyogenes 4): 0.125 µg/mL
ED50 (Escherichia coli 25922; [6]): < 0.1 mg/kg
ED50 [2]: 12 mg/kg
ED50 [3]: 0.78 mg/kg

C=CC1=C(C(=O)O)N2C(=O)[C@@H](NC(=O)/C(=N\OCC(=O)O)c3csc(N)n3)[C@H]2SC1 [Cefixime, reference compound]
ED50 (Escherichia coli 25922; [6]): 0.5 mg/kg
ED50 [3]: 2 mg/kg

Nc1nc(/C(=N/O)C(=O)N[C@@H]2C(=O)N3C(C(=O)O)=C(/C=C4\CCN(CC(F)(F)F)C4=O)CS[C@H]23)cs1 [E, [6R-[3(E),6α,7β(Z)]]-7-[[(2-Amino-4-thiazolyl)(hydroxyimino)-acetyl]amino]-3-[[1-(2,2,2-trifluoroethyl)-2-oxo-3-pyrrolidinylidene]-methyl]-8-oxo-5-thia-1-azabicyclo[4.2.0]oct-2-ene-2-carboxylic acid]
MIC (Acinetobacter sp.51-156): 16 µg/mL (≈ 29.3 µM)
MIC (B.fragilis ATCC25285): 8 µg/mL (≈ 14.6 µM)
MIC (C.difficile ZH1): 8 µg/mL (≈ 14.6 µM)
MIC (C.freundii 43): 4 µg/mL (≈ 7.32 µM)
MIC (C.freundii 902): 0.12 µg/mL (≈ 0.22 µM)
MIC (E.cloacae 908R): 16 µg/mL (≈ 29.3 µM)
MIC (E.cloacae 908SSi): 0.25 µg/mL (≈ 0.457 µM)
MIC (E.coli 25922): 0.12 µg/mL (≈ 0.22 µM)
MIC (E.faecalis 6): 1 µg/mL (≈ 1.83 µM)
MIC (H.influenzae 1): 0.25 µg/mL (≈ 0.457 µM)
MIC (K.pneumoniae 418): 0.12 µg/mL (≈ 0.22 µM)
MIC (L.monocytogenes BK23): 4 µg/mL (≈ 7.32 µM)
MIC (M.catarrhalis RA21): 16 µg/mL (≈ 29.3 µM)
MIC (M.morganii 6H-137): ≤ 0.06 µg/mL
MIC (N.meningitidis 69480): ≤ 0.06 µg/mL
MIC (P.aeruginosa 27853): 16 µg/mL (≈ 29.3 µM)
MIC (P.asaccharolyticus 29743): ≤ 0.12 µg/mL
MIC (P.mirabilis 2117): ≤ 0.06 µg/mL
MIC (P.vulgaris 1028): 1 µg/mL (≈ 1.83 µM)
MIC (S.agalactiae QK44): 0.25 µg/mL (≈ 0.457 µM)
MIC (S.aureus 6538): 0.5 µg/mL (≈ 0.915 µM)
MIC (S.aureus 734 MRSA): 8 µg/mL (≈ 14.6 µM)
MIC (S.marcescens 69438): 1 µg/mL (≈ 1.83 µM)
MIC (S.pneumoniae Q19): ≤ 0.06 µg/mL
MIC (S.pyogenes B15): ≤ 0.06 µg/mL
MIC (S.viridans group 016): 1 µg/mL (≈ 1.83 µM)
MIC (X.maltophilia 1AC739): > 32 µg/mL
MIC (S.aureus MSSA; MIC range): 0.5 to 1 µg/mL (≈ 0.915 to 1.83 µM)
MIC50 (S.aureus MSSA): 1 µg/mL (≈ 1.83 µM)
MIC90 (S.aureus MSSA): 1 µg/mL (≈ 1.83 µM)
MIC (S.pneumoniae PEN-R; [7]): 0.12 to 0.5 µg/mL (≈ 0.22 to 0.915 µM)
MIC (S.pneumoniae PEN-R; medium IsoB + 20% serum): 0.25 to 0.5 µg/mL
MIC50 (S.pneumoniae PEN-R; [7]): 0.25 µg/mL (≈ 0.457 µM)
MIC90 (S.pneumoniae PEN-R; [7]): 0.5 µg/mL (≈ 0.915 µM)
MIC50 (S.pneumoniae PEN-R; medium IsoB + 20% serum): 0.5 µg/mL
MIC50 (S.viridans group): 2 µg/mL (≈ 3.66 µM)
MIC90 (S.viridans group): 2 µg/mL (≈ 3.66 µM)
MIC (S.viridans group; MIC range): 0.12 to 4 µg/mL (≈ 0.22 to 7.32 µM)
MIC (E.faecalis [4]; MIC range): 1 to 2 µg/mL (≈ 1.83 to 3.66 µM)
MIC50 (E.faecalis [4]): 1 µg/mL (≈ 1.83 µM)
MIC90 (E.faecalis [4]): 2 µg/mL (≈ 3.66 µM)
MIC (S.aureus MRSA; MIC range): 8 to 16 µg/mL (≈ 14.6 to 29.3 µM)
MIC50 (S.aureus MRSA): 8 µg/mL (≈ 14.6 µM)
MIC90 (S.aureus MRSA): 8 µg/mL (≈ 14.6 µM)
MIC (E.faecium; MIC range): 1 to 16 µg/mL (≈ 1.83 to 29.3 µM)
MIC50 (E.faecium): 4 µg/mL (≈ 7.32 µM)
MIC (M.catarrhalis; MIC range): 1 to 16 µg/mL (≈ 1.83 to 29.3 µM)
MIC50 (M.catarrhalis): 4 µg/mL (≈ 7.32 µM)
MIC90 (M.catarrhalis): 16 µg/mL (≈ 29.3 µM)
ED50 (Escherichia coli 25922; [6]): 3 mg/kg
ED50 (Escherichia coli 25922; Escherichia coli, E.coli 25922, sc 1 and 3 h after challenge): 0.07 mg/kg
ED50 (S.aureus Smith): < 1 mg/kg
MIC (E.faecalis [5]; MIC range): 0.25 to 2 µg/mL (≈ 0.457 to 3.66 µM)
MIC50 (E.faecalis [5]): 0.5 µg/mL (≈ 0.915 µM)
MIC90 (E.faecalis [5]): 2 µg/mL (≈ 3.66 µM)
